Data: US20050042172A1, “Administration of medicaments by vaporisation” (priority 2001, published 2005)

How the values were obtained:
[1] = some clinical studies and anecdotal reports; a perception; cited from earlier work
[2] = Pain relief, THC alone versus cannabis extract
[3] = Reports of subjects taking THCV; format: in vivo
Source text: In a further aspect the invention also provides compositions which have specific ratios of tetrahydrocannabinovarin (THCV) or cannabidivarin (CBDV).

C=C(C)[C@@H]1CCC(C)=C[C@H]1c1c(O)cc(CCCCC)cc1O [CBD, cannabidiol]
effect on psychoactive effects of THC [1]: modifies the psychoactive effects of THC

CCCCCc1cc(O)c2c(c1)OC(C)(C)[C@@H]1CCC(C)=C[C@@H]21 [THC, tetrahydrocannabinol]
degree of pain relief [2]: lower degree of pain relief

CCCc1cc(O)c2c(c1)OC(C)(C)[C@@H]1CCC(C)=C[C@@H]21 [THCV, tetrahydrocannabinovarin]
hangover [3]: less severe hangover | mood enhancement ([3]; compared with THC): less disturbing than that produced by THC
